In PMC10975527 (Viruses, 2024):
Like-named read-outs stand apart in the source and are kept apart here.

How the values were obtained:
Wild-type HBV = assay: HBV polymerase variant phenotyping in Huh-7: wild-type; conditions: Hepatitis B virus
Beagle dogs = assay: 13-week repeat-dose toxicity study in dogs; type: in vivo; design: key to Testis: Degeneration/Atrophy, Minimal, incidence / Testis: Degeneration/Atrophy, Mild, incidence / Testis: Degeneration/Atrophy, Moderate, incidence / Epididymis: Cellular debris, Minimal, incidence / Epididymis: Cellular debris, Mild, incidence / Epididymis: Cellularity, decreased; sperm, Minimal, incidence / Epididymis: Cellularity, decreased; sperm, Mild, incidence / Epididymis: Cellularity, decreased; sperm, Marked, incidence: - = no AB-161-related findings
Sprague Dawley rats = assay: 13-week repeat-dose toxicity study in rats; type: in vivo
HBV genotypes A–H = assay: HBV genotype coverage in HBV transfected Huh-7 cells (HBsAg); conditions: Hepatitis B virus
WNV = assay: Antiviral selectivity panel: WNV; type: cell-based; conditions: West Nile virus, Vero 76, in Primates; Vero76 (monkey kidney)
HRV = assay: Antiviral selectivity panel: HRV; type: cell-based; conditions: Human rhinovirus sp., HEp-2; HEp2 (human epithelial)
IAV = assay: microbe, parasite or virus in culture; type: cell-based; conditions: Influenza A virus, MDBK, in Bos taurus, read-out: EC50 (IAV)
in vitro [1] = conditions: hamster
HBV = assay: HBV-infected primary human hepatocytes (PHH) antiviral assay; type: cell-based; conditions: Hepatitis B virus, Hepatocyte, genotype D
HBV pgRNA and preS/S RNA = assay: Kinetics of HBV RNA degradation in HepAD38 cells (Northern blot); type: cell-based, hepatitis B virus; conditions: HepAD38, GLS4 + AB-161 (100 nM)
in vitro [2] = conditions: bovine
HCMV = assay: Antiviral selectivity panel: HCMV; type: cell-based, human cytomegalovirus; conditions: Human betaherpesvirus 5, MRC5; MRC-5 (human lung)
in vitro [3] = type: in vitro ADME; conditions: dog, plasma
in vitro [4] = type: in vitro ADME; conditions: mouse
in vitro [5] = conditions: monkey
in vitro [6] = type: in vitro ADME; conditions: human
in vitro [7] = type: in vitro ADME; conditions: rat, plasma
[8] = mouse, in vivo
[9] = male dogs, 10 mg/kg/day, end of main study (days 97–100)
[10] = male dogs, 10 mg/kg/day, end of main study, 4 examined
[11] = male dogs, 30 mg/kg/day, end of main study (days 97–100)
[12] = male dogs, 30 mg/kg/day, end of main study, 3 examined
[13] = male dogs, 100 mg/kg/day, end of main study (days 97–100)
[14] = male dogs, 100 mg/kg/day, end of main study, 4 examined
[15] = male dogs, 100 mg/kg/day, end of recovery (Day 120)
[16] = male dogs, 100 mg/kg/day, end of recovery (Day 120), 2 examined

COc1cc(OC(F)F)c2nc3c(n2c1)C[C@@H](C(C)(C)C)c1cc(C(=O)O)c(=O)[nH]c1-3 [AB-161]
EC50 (Wild-type HBV; Huh-7, read-out: EC50 (HBsAg)): 1.9 to 4.9 nM
EC50 (Wild-type HBV; Huh-7, read-out: HBsAg, EC50): 4.9 nM
motor nerve conduction (Beagle dogs; dogs): No differences from baseline or time-matched controls
animals with persisting peroneal sensory NCV delays (Beagle dogs; dogs, 100 mg/kg/day recovery cohort, day 119): 2 of 4
animals with peroneal sensory NCV delays (Beagle dogs; dogs, 100 mg/kg/day, days 71 to 72): 4 of 12
food consumption, electrocardiography, neurological examinations, urinalysis (Beagle dogs; dogs, 10, 30, or 100 mg/kg/day): no AB-161-related effects
reproductive safety findings (Beagle dogs; female dogs, 13-week administration, all doses): no reproductive safety findings
Testis: Degeneration/Atrophy, incidence (Beagle dogs; male dogs, 10 mg/kg/day, end of main study (day 97–100), 4 examined): 0
Testis weight, % of body weight (Beagle dogs; [9]): −9.38 percent difference from the control group means
Testis weight, % of brain weight (Beagle dogs; [9]): −16.13 percent difference from the control group means
Testis weight, absolute value (Beagle dogs; [9]): −18.03 percent difference from the control group means
Epididymis: Cellular debris, Mild, incidence (Beagle dogs; [10]): -
Epididymis: Cellular debris, Minimal, incidence (Beagle dogs; [10]): -
Epididymis: Cellular debris, incidence (Beagle dogs; [10]): 0
Epididymis: Cellularity, decreased; sperm, Marked, incidence (Beagle dogs; [10]): -
Epididymis: Cellularity, decreased; sperm, Mild, incidence (Beagle dogs; [10]): -
Epididymis: Cellularity, decreased; sperm, Minimal, incidence (Beagle dogs; [10]): -
Epididymis: Cellularity, decreased; sperm, incidence (Beagle dogs; [10]): 0
Testis: Degeneration/Atrophy, Mild, incidence (Beagle dogs; [10]): -
Testis: Degeneration/Atrophy, Minimal, incidence (Beagle dogs; [10]): -
Testis: Degeneration/Atrophy, Moderate, incidence (Beagle dogs; [10]): -
Testis weight, % of body weight (Beagle dogs; [11]): −21.93 percent difference from the control group means
Testis weight, % of brain weight (Beagle dogs; [11]): −30.73 percent difference from the control group means
Testis weight, absolute value (Beagle dogs; [11]): −34.17 percent difference from the control group means
Epididymis: Cellular debris, Mild, incidence (Beagle dogs; [12]): 2
Epididymis: Cellular debris, Minimal, incidence (Beagle dogs; [12]): 0
Epididymis: Cellular debris, incidence (Beagle dogs; [12]): 2
Epididymis: Cellularity, decreased; sperm, Marked, incidence (Beagle dogs; [12]): 0
Epididymis: Cellularity, decreased; sperm, Mild, incidence (Beagle dogs; [12]): 2
Epididymis: Cellularity, decreased; sperm, Minimal, incidence (Beagle dogs; [12]): 0
Epididymis: Cellularity, decreased; sperm, incidence (Beagle dogs; [12]): 2
Testis: Degeneration/Atrophy, Mild, incidence (Beagle dogs; [12]): 1
Testis: Degeneration/Atrophy, Minimal, incidence (Beagle dogs; [12]): 1
Testis: Degeneration/Atrophy, Moderate, incidence (Beagle dogs; [12]): 0
Testis: Degeneration/Atrophy, incidence (Beagle dogs; [12]): 2
Testis weight, % of body weight (Beagle dogs; [13]): −12.18 percent difference from the control group means
Testis weight, % of brain weight (Beagle dogs; [13]): −16.10 percent difference from the control group means
Testis weight, absolute value (Beagle dogs; [13]): −20.62 percent difference from the control group means
Epididymis: Cellular debris, Mild, incidence (Beagle dogs; [14]): 2
Epididymis: Cellular debris, Minimal, incidence (Beagle dogs; [14]): 2
Epididymis: Cellular debris, incidence (Beagle dogs; [14]): 4
Epididymis: Cellularity, decreased; sperm, Marked, incidence (Beagle dogs; [14]): 1
Epididymis: Cellularity, decreased; sperm, Mild, incidence (Beagle dogs; [14]): 2
Epididymis: Cellularity, decreased; sperm, Minimal, incidence (Beagle dogs; [14]): 1
Epididymis: Cellularity, decreased; sperm, incidence (Beagle dogs; [14]): 4
Testis: Degeneration/Atrophy, Mild, incidence (Beagle dogs; [14]): 1
Testis: Degeneration/Atrophy, Minimal, incidence (Beagle dogs; [14]): 2
Testis: Degeneration/Atrophy, Moderate, incidence (Beagle dogs; [14]): 1
Testis: Degeneration/Atrophy, incidence (Beagle dogs; [14]): 4
Testis weight, % of body weight (Beagle dogs; [15]): −37.79 percent difference from the control group means
Testis weight, % of brain weight (Beagle dogs; [15]): −43.49 percent difference from the control group means
Testis weight, absolute value (Beagle dogs; [15]): −42.84 percent difference from the control group means
Epididymis: Cellular debris, Mild, incidence (Beagle dogs; [16]): (2) 2 2 2 2
Epididymis: Cellular debris, incidence (Beagle dogs; [16]): (2) 2 2 2 2
Epididymis: Cellularity, decreased; sperm, Moderate, incidence (Beagle dogs; [16]): (2) 2 2 2 2
Epididymis: Cellularity, decreased; sperm, incidence (Beagle dogs; [16]): (2) 2 2 2 2
Testis: Degeneration/Atrophy, Moderate, incidence (Beagle dogs; [16]): (2) 2 2
Testis: Degeneration/Atrophy, incidence (Beagle dogs; [16]): (2) 2 2
testis microscopic finding (Beagle dogs; male dogs, 30 and 100 mg/kg/day at terminal euthanasia, persisted at end of recovery at 100 mg/kg/day): degeneration/atrophy in the testis was noted
reproductive safety findings (Sprague Dawley rats; male or female rats, 13-week administration, all doses): no reproductive safety findings
motor nerve conduction (Sprague Dawley rats; rats): No differences from baseline or time-matched controls
sensory nerve conduction velocity (NCV) (Sprague Dawley rats; rats, 500 mg/kg, day 70 and day 119, considered non-adverse): NCV delays were noted
CC50 (HEp2 (human epithelial)): > 30 µM
EC50 (HBV genotypes A–H; Huh-7, read-out: HBsAg EC50, HBV transfected Huh-7, range over genotypes A–H): 2.1 to 4.5 nM
EC50 (HBV genotypes A–H; Huh-7, read-out: HBsAg EC50, Huh-7, HBV genotype A): 3 ± 0.8 nM
EC50 (HBV genotypes A–H; Huh-7, read-out: HBsAg EC50, Huh-7, HBV genotype B): 2.6 ± 1.4 nM
EC50 (HBV genotypes A–H; Huh-7, read-out: HBsAg EC50, Huh-7, HBV genotype C): 2.3 ± 0.6 nM
EC50 (HBV genotypes A–H; Huh-7, read-out: HBsAg EC50, Huh-7, HBV genotype D): 4.5 ± 2.8 nM
EC50 (HBV genotypes A–H; Huh-7, read-out: HBsAg EC50, Huh-7, HBV genotype E): 2.5 ± 0.9 nM
EC50 (HBV genotypes A–H; Huh-7, read-out: HBsAg EC50, Huh-7, HBV genotype F): 3.3 ± 2.6 nM
EC50 (HBV genotypes A–H; Huh-7, read-out: HBsAg EC50, Huh-7, HBV genotype H-1): 2.4 ± 0.5 nM
EC50 (HBV genotypes A–H; Huh-7, read-out: HBsAg EC50, Huh-7, HBV genotype H-2): 2.1 ± 0.9 nM
EC50 (WNV): > 30 µM
EC50 (HRV): > 30 µM
EC50 (IAV): > 30 µM
CC50 (in vitro [1]): > 30 µM
CC50 (Huh-7 cells; HBV transfected Huh-7, genotypes A–H): > 50 µM
CC50 (Huh-7 cells; Huh-7, HBV genotype A): > 50 µM
CC50 (Huh-7 cells; Huh-7, HBV genotype C): > 50 µM
CC50 (Huh-7 cells; Huh-7, HBV genotype D): > 50 µM
CC50 (Huh-7 cells; Huh-7, HBV genotype E): > 50 µM
CC50 (Huh-7 cells; Huh-7, HBV genotype F): > 50 µM
CC50 (Huh-7 cells; Huh-7, HBV genotype H-1): > 50 µM
CC50 (Huh-7 cells; Huh-7, HBV genotype H-2): > 50 µM
EC50 (HBV; read-out: HBV RNA EC50 (converted)): 9.6 nM
EC50 (HBV; read-out: HBeAg EC50 (converted)): 11.9 nM
EC50 (HBV; read-out: HBsAg EC50): 8.5 ± 4.7 nM
levels of pgRNA and preS/S RNA (HBV pgRNA and preS/S RNA; 8 h and 16 h post-treatment): substantially reduced
migration of pgRNA and preS/S RNA (shortening of the viral transcripts) (HBV pgRNA and preS/S RNA; starting at 2 h post-treatment): faster migration
CC50 (in vitro [2]): > 30 µM
EC50 (HCMV): > 30 µM
CC50 (MRC-5 (human lung)): > 30 µM
fraction unbound at 6 h, 500 ng/mL (in vitro [3]): 0.047
AB-161 estimated to be free (in vitro [4]; 6 h, 500 ng/mL): 2.4%
fraction unbound at 6 h, 500 ng/mL (in vitro [4]; plasma): 0.024
fraction-unbound factor (in vitro [4]; plasma, 6 h, 500 ng/mL): 0.024
CC50 (in vitro [5]): > 30 µM
plasma protein binding, bound (in vitro [6]; 6 h, 500 ng/mL): 95%
fraction unbound at 6 h, 500 ng/mL (in vitro [6]; plasma, plasma protein binding, bound): 0.049
fraction unbound at 6 h, 500 ng/mL (in vitro [7]): 0.056
liver and kidney function markers (ALT, creatinine) [8]: no significant changes
